# In patent US20070027181A1, “Benzylisoquinoline derivative- or bisbenzylisoquinoline derivative-containing psychotropic agent, analgesic and/or antiphlogistic, and health food” (EDUCATION CENTER OF TRADITIONAL, priority 2004, published 2007):
# How the values were obtained:
# Type in all cases: in vivo, Male ICR mice
# mice [1] = assay: elevated plus-maze test (antianxiety action); conditions: 100 mg/kg i.p., 30 minutes after administration
# Method: In the following Examples, all extracts and drugs used were dissolved in physiological saline before use for i.p. administration and the dose was 0.1 ml of physiological saline per 10 g of mouse body weight in either case. All extracts and drugs were suspended in physiological saline containing 1% sodium carboxymethylcellulose before use for oral administration and the dose was 0.1 ml of 1% sodium carboxymethylcellulose-containing physiological saline suspension per 10 g of mouse body weight in either case. […]
# An elevated plus-maze (Neuroscience Inc.) consisting of 2 arms without high walls and 2 arms enclosed by high walls, which were crossing perpendicular to each other, was used for evaluation. A mouse was placed on the platform at the center in a position facing toward an arm without walls, and the number of times the mouse entered into both arms and the period of the mouse staying in the arms without walls were determined during a period of 5 minutes. The results were evaluated by the ratio (%) of the number of the mouse entering into the arms without walls to the total number of entering into both arms and by the ratio (%) of the period of the mouse staying in the arms without walls to the test period. […]
# mice [2] = assay: acetic acid-induced writhing test
# Method: (§1) In the following Examples, all extracts and drugs used were dissolved in physiological saline before use for i.p. administration and the dose was 0.1 ml of physiological saline per 10 g of mouse body weight in either case. All extracts and drugs were suspended in physiological saline containing 1% sodium carboxymethylcellulose before use for oral administration and the dose was 0.1 ml of 1% sodium carboxymethylcellulose-containing physiological saline suspension per 10 g of mouse body weight in either case. Male ICR mice (Japan SLC) having a body weight of 25 to 30 g were used in the tests below unless otherwise stated, and were fed in advance at a room temperature of 23±1° C. and a relative humidity of 55±5% in the environment of a cycle of 12-hour-light from 7 a.m. to 7 p.m. and 12-hour-dark from 7 p.m. to 7 a.m. for 3 to 5 days. The mice were allowed to have water and feed freely.
# An acetic acid-induced writhing test is a method wherein analgesic action of a compound is determined utilizing this. The number of this writhing is compared between a physiological saline-administered control group and a test drug-administered group, and suppression of the number of writhing by the test drug is investigated thereby assessing its analgesic action.
# Seven to ten mice per group were used. Neferine hydrochloride was subcutaneously administered to mice at their back at a dose of 5 mg/kg, 10 mg/kg, 25 mg/kg, 50 mg/kg or 100 mg/kg and, after 15 minutes, a 0.6% by weight solution of acetic acid in water was intraperitoneally administered at 0.1 mL/10 g body weight. The number of writhing was counted every ten minutes for 30 minutes from immediately after acetic acid administration (0 to 10 min, 10 to 20 min, 20 to 30 min). In addition, the total number of writhing for 30 minutes from immediately after acetic acid administration was also obtained. Regarding the resulting measurements, a significant difference test was performed by a Dunnet multiple comparison test method.
# According to the same manner as in acetic acid-induced writhing test-1 except that acetic acid was intraperitoneally administered 30 minutes after subcutaneous administration of neferine in the aforementioned acetic acid-induced writhing test-1, an acetic acid-induced writhing test was performed. However, the dose of neferine was only 50 mg/kg.
# According to the same manner as in the acetic acid-induced writhing test-1 except that acetic acid was intraperitoneally administered 30 minutes after oral administration of neferine in the aforementioned acetic acid-induced writhing test-1, an acetic acid-induced writhing test was performed. However, five to six mice per group were used. The dose of neferine was 10 mg/kg and 50 mg/kg. Further, aspirin was used as a positive control drug. The dose of aspirin was 50 mg/kg.
# (§2) According to the same manner as in acetic acid-induced writhing test-1 except that armepavine was used in place of neferine in the aforementioned acetic acid-induced writhing test-1, an acetic acid-induced writhing test was performed. However, the dose of armepavine was 5 mg/kg and 10 mg/kg.
# as §2, with “O-methylarmepavine” for “armepavine”
# mice [3] = assay: histamine-induced paw edema test; conditions: 100 mg/kg i.p. 30 minutes before histamine 10 μg; 12 minutes after histamine
# Method: as §1
# Six mice per group were used. […] The thickness of the right hind paw was measured immediately before histamine administration and 12 minutes after histamine administration. The thickness immediately before administration was subtracted from the thickness of the paw after histamine administration, and this was adopted as a thickness of paw edema. As apparent from TABLE 18, paw edema due to histamine was suppressed by neferine. […]
# [4] = 5 mg/kg s.c. 15 minutes before acetic acid
# [5] = 10 mg/kg oral 30 minutes before acetic acid
# [6] = 10 mg/kg s.c. 15 minutes before acetic acid
# [7] = 25 mg/kg s.c. 15 minutes before acetic acid
# [8] = 50 mg/kg oral 30 minutes before acetic acid
# [9] = 50 mg/kg s.c. 15 minutes before acetic acid
# [10] = 50 mg/kg s.c. 30 minutes before acetic acid
# [11] = 100 mg/kg s.c. 15 minutes before acetic acid
structure (smiles),measurement,setting,value
COc1ccc(C[C@@H]2c3cc(Oc4cc(C[C@@H]5c6cc(OC)c(OC)cc6CCN5C)ccc4O)c(OC)cc3CCN2C)cc1 [neferine],Invasion times (%),mice [1]; entries into arms without walls / total entries,70%
same,Staying period (%),mice [1]; period in arms without walls / test period,33%
same,Number of writhing 0-10 min.,mice [2]; [4],21.8 ± 2.30
same,Number of writhing 0-30 min.,mice [2]; [4],51.0 ± 5.34
same,Number of writhing 10-20 min.,mice [2]; [4],19.0 ± 2.14
same,Number of writhing 20-30 min.,mice [2]; [4],10.7 ± 2.04
same,Number of writhing 0-10 min.,mice [2]; [5],7.6 ± 1.63
same,Number of writhing 0-30 min.,mice [2]; [5],23.3 ± 1.52
same,Number of writhing 10-20 min.,mice [2]; [5],9.2 ± 1.35
same,Number of writhing 20-30 min.,mice [2]; [5],6.5 ± 2.50
same,Number of writhing 0-10 min.,mice [2]; [6],12.1 ± 1.91
same,Number of writhing 0-30 min.,mice [2]; [6],31.6 ± 6.15
same,Number of writhing 10-20 min.,mice [2]; [6],11.6 ± 2.66
same,Number of writhing 20-30 min.,mice [2]; [6],7.9 ± 3.06
same,Number of writhing 0-10 min.,mice [2]; [7],8.9 ± 2.22
same,Number of writhing 0-30 min.,mice [2]; [7],19.4 ± 3.48
same,Number of writhing 10-20 min.,mice [2]; [7],6.9 ± 1.90
same,Number of writhing 20-30 min.,mice [2]; [7],3.6 ± 1.19
same,Number of writhing 0-10 min.,mice [2]; [8],2.4 ± 1.94
same,Number of writhing 0-30 min.,mice [2]; [8],8.0 ± 3.08
same,Number of writhing 10-20 min.,mice [2]; [8],4.0 ± 1.30
same,Number of writhing 20-30 min.,mice [2]; [8],1.6 ± 0.81
same,Number of writhing 0-10 min.,mice [2]; [9],5.7 ± 1.38
same,Number of writhing 0-30 min.,mice [2]; [9],19.7 ± 3.56
same,Number of writhing 10-20 min.,mice [2]; [9],5.7 ± 1.38
same,Number of writhing 20-30 min.,mice [2]; [9],5.3 ± 2.15
same,Number of writhing 0-10 min.,mice [2]; [10],10.6 ± 2.53
same,Number of writhing 0-30 min.,mice [2]; [10],27.4 ± 3.73
same,Number of writhing 10-20 min.,mice [2]; [10],10.3 ± 1.90
same,Number of writhing 20-30 min.,mice [2]; [10],6.6 ± 1.53
same,Number of writhing 0-10 min.,mice [2]; [11],4.0 ± 1.22
same,Number of writhing 0-30 min.,mice [2]; [11],14.9 ± 2.16
same,Number of writhing 10-20 min.,mice [2]; [11],6.7 ± 1.31
same,Number of writhing 20-30 min.,mice [2]; [11],4.2 ± 1.02
same,dose showing significant analgesic action against the negative control group,mice [2]; 15 minute-before subcutaneous administration,≥ 10 mg/kg
same,analgesic action compared with aspirin,mice [2]; oral administration 30 minutes before acetic acid,strong analgesic action as compared with aspirin
same,Thickness of paw edema (mm),mice [3],0.32 ± 0.03 mm
